Marks after values point to notes of the source that are not given here.
Legend:
[1] = tested on: zebrafish non-alcoholic fatty liver; test: Fat reduction or elimination effect on thioacetamide-induced zebrafish non-alcoholic fatty liver (Oil Red O staining); assay type: in vivo; conditions: for The total optical density of liver fat: mean ± SE, n = 10; for inhibition at 200 µM / inhibition at 100 µM: Danio rerio, read-out: Inhibition rate of liver steatosis
Description: 40 mM stock solution of test compounds 4, 5, 6, 7, 46, 67, 78, 85, 92 and 101 were prepared with DMSO, and stored in a refrigerator at −20° C. The positive control compound S-adenosylmethionine (SAM) was purchased from Aladdin Reagent (Shanghai) Co., Ltd., with the batch number F1523051, which was prepared into a 50 mM stock solution with DMSO. The control compound silymarin was purchased from Shanghai Dibai Biotechnology Co., Ltd., with the batch number EE09, which was prepared into a 40 mM stock solution with DMSO. Thioacetamide was purchased from Sigma-Aldrich, with the batch number BCBV3031, which wasprepared into a 1 M stock solution with DMSO. Oil Red O was purchased from Sigma-Aldrich, with the batch number SLBP5248V. 4% paraformaldehyde was purchased from Dingguo Biotechnology Co., Ltd., with the batch number 773001800. Propylene glycol was purchased from Sinopharm Chemical Reagent Co., Ltd., with the batch number 20170615.
The melanin allele mutant translucent Albino line zebrafish was reproduced in natural paired mating. The fish age was 3 days after fertilization, with 30 fish per experimental group.
The above zebrafish were raised in fish farming water at 28° C. (water quality: 200 mg instant sea salt was added to 1 L of reverse osmosis water, conductivity was 480-510 μS/cm; pH was 6.9-7.2; hardness was 53.7-71.6 mg/L CaCOs), the experimental animal use license number was: SYXK (Zhejiang) 2012-0171. Feeding management met the requirements of international AAALAC certification.
Three days after fertilization, the normal melanin allele mutant translucent Albino strain of zebrafish was randomly selected and placed in a six well plate with 30 fish per well (i.e. each experimental group), and then thioacetamide with the final concentration of 7 mM was used to treat zebrafish for 72 hours to establish the non-alcoholic fatty liver model.
The zebrafish were transferred to a six-well plate, with 30 fish per well (i.e., each experimental group) randomly. Non-alcoholic fatty liver model in zebrafish were induced by thioacetamide. 40 mM test compounds 4, 5, 6, 7, 46, 67, 78, 85, 92 and 101 were quantitatively transferred to a six-well plate, and diluted with water to the corresponding concentration. Test compounds 4, 5, 6 and 7 were formulated into two dose groups with final concentration of 100 μM and 200 μM, respectively; test compound 46 was formulated into a dose group with final concentration of 200 μM; test compounds 67, 78, 85, 92 and 101 were formulated into dose groups with a final concentration of 100 μM; 50 mM positive control SAM was formulated with water to a dose group with final concentration of 50 μM, and a 40 mM positive control silymarin was formulated with water to two concentration dose groups with final concentration of 100 μM and 200 μM. A normal control group (zebrafish treated with fish farming water) and a model control group were set at the same time, and the total volume of each well was 3 mL. Except for the normal control group, the other experimental groups were treated with thioacetamide for 72 hours and stained with Oil Red O. After staining, 10 zebrafish were randomly selected from each experimental group and photographed under a dissecting microscope, NIS-Elements D 3.10 advanced image processing software was used to perform image analysis and collect data, the total optical density (S) of zebrafish liver fat was statistically analyzed, and for the inhibitory effect of each experimental group on liver steatosis of zebrafishwas evaluated by the following formula, the results of statistical analysis were expressed as mean±SE: Inhibition rate of liver steatosis (%)=[S(model control group)−S(test compound group)]/[S(model control group)−S(normal control group)]×100%
Statistical analysis was performed using analysis of variance and Dunnett's T-test, and p<0.05 indicated a significant difference. […]

[2] = tested on: NASH mice; test: Efficacy on non-alcoholic steatohepatitis (NASH) mice fed high-fat feed; assay type: in vivo, C57BL/6 mice; conditions: for Liver coefficient (liver weight/body weight) / Liver weight: 28 days; for Liver weight: X ± SD
Description: The test compounds were 4 and 7, respectively; the positive control silymarin was purchased from Shanghai Dibai Biotechnology Co., Ltd., with the batch number HH06.
Low-dose group (35 mg/kg) solution preparation: the quantitative test compound was precisely weighed and a certain amount of normal saline was added to prepare the oral suspension solution with the concentration of 3.5 mg/mL. The administration volume was 10 mL/kg.
High-dose group (70 mg/kg) solution preparation: the quantitative test compound was precisely weighed and a certain amount of normal saline was added to prepare the oral suspension solution with the concentration of 7.0 mg/mL. The administration volume was 10 mL/kg.
High-fat feed: basic feed ingredients were corn, flour, imported fish meal, soybean meal, secondary meal, yeast meal, soybean oil, etc. The high-fat feed was prepared from 73.6% basic feed with 10% lard, 10% egg yolk powder, 5% sucrose, 1.2% cholesterol and 0.2% pig bile salt.
Source, species, strain: C57BL/6 mice, provided by Beijing Vital River Laboratory Animal Technology Co., Ltd. Nanjing Branch (experimental animal production license: SCXK (Su) 2016-0003); experimental animal use license: SYXK (Jun) 2012-0049; age: 6-8 weeks at the beginning of dosing; weight: 18-22 g; gender: half male and half female.
After 3 days of adaptive feeding with normal feed, the mice were randomly assigned according to body weight: 8 mice were fed with normal feed and set as normal control (NC); the rest of mice were fed with high-fat feed until the end of the experiment. The mice were weighed and recorded every 3 days. After feeding with high-fat diet for 56 days (8 weeks), blood samples were collected from the orbital vein of mice to detect the blood biochemical indexes to identify whether the modelling was successful.
After successful modeling, the mice in the high-fat feed group were randomly divided into 6 groups with 8 animals in each group, including model group, compound 4 low dose group, compound 4 high dose group, compound 7 low dose group, compound 7 high dose group and silymarin high-dose group. The mice in each group were administered intragastrically according to the animal's body weight every day for 28 consecutive days (4 weeks). At the same time, during the administration period, the mice in each administration group and model group continued to be fed with high-fat feed until the end of the experiment. The normal control group was administered the corresponding volume of normal saline.
On the last day of the experiment, the mice in each group were fasted for 8 hours, blood was taken from the orbit and the serum was separated and then stored at −20° C. After blood collection, the mice were sacrificed and the liver was quickly separated, weighed and stored in a refrigerator at −80° C. Serum samples and liver tissue samples were subjected to determinations of serum triglyceride (TG), serum total cholesterol (TC), serum high-density lipoprotein (HDL-C), serum low-density lipoprotein (LDL-C), serum alanine aminotransferase (ALT), serum aspartate aminotransferase (AST), serum tumor necrosis factor alpha (TNFα), liver triglycerides (TG), liver total cholesterol (TC), liver malondialdehyde (MDA), liver superoxide dismutase (SOD); in addition, some livers of mice in the blank control group, model group, compound 7 low-dose group and silymarin high-dose group were fixed in neutral formaldehyde fixed solution and then HE staining was performed to analyzed the pathological changes of liver tissue.

COc1cc([C@H]2Oc3cc([C@H]4Oc5cc(O)cc(O)c5/C(=N/O)[C@@H]4O)ccc3O[C@@H]2CO)ccc1O [Compound 46, (2R,3S)-3,5,7-trihydroxy-2-{(2R,3R)-3-(4-hydroxy-3-methoxyphenyl)-2-hydroxymethyl-2,3-dihydrobenzo[b][1,4]dioxan-6-yl}chroman-4-one oxime]
Therapeutic effect on zebrafish non-alcoholic fatty liver (in words) ([1]; 200 μM): significant therapeutic effect
The total optical density of liver fat ([1]; 200 μM): 19767 ± 814 Pixels
inhibition at 200 µM ([1]; 200 μM): 60%

COc1cc([C@H]2Oc3cc([C@H]4Oc5cc(O)cc(O)c5C(O)[C@@H]4O)ccc3O[C@@H]2CO)ccc1O (stereo partly drawn) [Compound 5, (2R,3S)-2-{(2R,3R)-3-(4-hydroxy-3-methoxyphenyl)-2-hydroxymethyl-2,3-dihydrobenzo[b][1,4]dioxan-6-yl}chroman-3,4,5,7-tetraol]
Inhibition rate of liver steatosis ([1]; 100 μM): 85** %
Therapeutic effect on non-alcoholic fatty liver of zebrafish (in words) ([1]; 100 μM): significant therapeutic effects
The total optical density of liver fat ([1]; 100 μM): 18496 ± 862 Pixels
Therapeutic effect on zebrafish non-alcoholic fatty liver (in words) ([1]; 200 μM): significant therapeutic effect
The total optical density of liver fat ([1]; 200 μM): 18452 ± 795 Pixels
inhibition at 100 µM ([1]; 100 μM): 84%
inhibition at 200 µM ([1]; 200 μM): 86%

COc1cc(OC)c2c(c1)OC(c1cc(O)c3c(c1)OC(c1ccc(O)c(OC)c1)C(CO)O3)C(O)C2 (stereo not drawn) [Compound 78, 7-{(3-hydroxy-5,7-dimethoxychroman-2-yl)-2-(4-hydroxy-3-methoxyphenyl)-3-hydroxymethyl-2,3-dihydrobenzo[b][1,4]dioxane}-5-ol]
Therapeutic effect on non-alcoholic fatty liver of zebrafish (in words) ([1]; 100 μM): significant therapeutic effects
The total optical density of liver fat ([1]; 100 μM): 19665 ± 1330 Pixels
inhibition at 100 µM ([1]; 100 μM): 62%

C[S+](CC[C@H](N)C(=O)[O-])C[C@H]1O[C@@H](n2cnc3c(N)ncnc32)[C@H](O)[C@@H]1O (stereo partly drawn) [S-adenosylmethionine, reference compound]
Inhibition rate of liver steatosis ([1]; 50 μM (SAM)): 89%
The total optical density of liver fat ([1]; 50 μM (SAM)): 18301 ± 783 Pixels

COc1cc(OC)c2c(c1)OC(c1cc(O)c3c(c1)OC(c1ccc(O)c(OC)c1)C(CO)O3)C(O)C2O (stereo not drawn) [Compound 92, 2-{8-hydroxy-3-(4-hydroxy-3-methoxyphenyl)-2-hydroxymethyl-2,3-dihydrobenzo[b][1,4]dioxan-6-yl}-5,7-dimethoxychroman-3,4-diol]
Therapeutic effect on non-alcoholic fatty liver of zebrafish (in words) ([1]; 100 μM): significant therapeutic effects
The total optical density of liver fat ([1]; 100 μM): 17836 ± 639 Pixels
inhibition at 100 µM ([1]; 100 μM): 98%

COc1cc(C2Oc3cc(C4Oc5cc(F)cc(O)c5C(O)C4O)cc(O)c3OC2CO)ccc1O (stereo not drawn) [Compound 101, 7-fluoro-2-{8-hydroxy-3-(4-hydroxy-3-methoxyphenyl)-2-hydroxymethyl-2,3-dihydrobenzo[b][1,4]dioxan-6-yl}chroman-3,4,5-triol]
Therapeutic effect on non-alcoholic fatty liver of zebrafish (in words) ([1]; 100 μM): significant therapeutic effects
The total optical density of liver fat ([1]; 100 μM): 18090 ± 837 Pixels
inhibition at 100 µM ([1]; 100 μM): 93%

COc1cc(C2Oc3cc(C4Oc5cc(O)cc(O)c5C(O)C4O)cc(O)c3OC2CO)ccc1O (stereo not drawn) [Compound 4, 2-{8-hydroxy-3-(4-hydroxy-3-methoxyphenyl)-2-hydroxymethyl-2,3-dihydrobenzo[b][1,4]dioxan-6-yl}chroman-3,4,5,7-tetraol]
Therapeutic effect on non-alcoholic fatty liver of zebrafish (in words) ([1]; 100 μM): significant therapeutic effects
The total optical density of liver fat ([1]; 100 μM): 18598 ± 608 Pixels
Therapeutic effect on zebrafish non-alcoholic fatty liver (in words) ([1]; 200 μM): significant therapeutic effect
The total optical density of liver fat ([1]; 200 μM): 17802 ± 487 Pixels
inhibition at 100 µM ([1]; 100 μM): 83%
inhibition at 200 µM ([1]; 200 μM): 99%
TG ([2]; 35 mg/kg/day): 1.21 ± 0.05 mmol/L
Liver coefficient (liver weight/body weight) ([2]; 35 mg/kg/day intragastric): 4.43 ± 0.31 %
Liver weight ([2]; 35 mg/kg/day intragastric): 1.39 ± 0.03 g
TG ([2]; 70 mg/kg/day): 1.18 ± 0.06 mmol/L
Liver coefficient (liver weight/body weight) ([2]; 70 mg/kg/day intragastric): 4.54 ± 0.33 %
Liver weight ([2]; 70 mg/kg/day intragastric): 1.43 ± 0.03 g
Therapeutic effect on non-alcoholic steatohepatitis in mice (in words) ([2]; 35 and 70 mg/kg): significant therapeutic effects
MDA ([2]; liver, 35 mg/kg/day): 2.91 ± 0.42 nmol/mg
SOD ([2]; liver, 35 mg/kg/day): 18.08 ± 3.90 U/mg
TC ([2]; liver, 35 mg/kg/day): 1.51 ± 0.06 mmol/L
MDA ([2]; liver, 70 mg/kg/day): 2.80 ± 0.21 nmol/mg
SOD ([2]; liver, 70 mg/kg/day): 17.42 ± 4.16 U/mg
TC ([2]; liver, 70 mg/kg/day): 1.51 ± 0.11 mmol/L
ALT ([2]; serum, 35 mg/kg/day): 89.08 ± 18.93 U/L
AST ([2]; serum, 35 mg/kg/day): 140.13 ± 13.93 U/L
HDL-C ([2]; serum, 35 mg/kg/day): 0.95 ± 0.33 mmol/L
LDL-C ([2]; serum, 35 mg/kg/day): 2.55 ± 0.50 mmol/L
TC ([2]; serum, 35 mg/kg/day): 2.59 ± 0.32 mmol/L
TG ([2]; serum, 35 mg/kg/day): 1.18 ± 0.02 mmol/L
TNF-α ([2]; serum, 35 mg/kg/day): 414.20 ± 13.46 ng/L
ALT ([2]; serum, 70 mg/kg/day): 98.29 ± 75.07 U/L
AST ([2]; serum, 70 mg/kg/day): 120.04 ± 12.55 U/L
HDL-C ([2]; serum, 70 mg/kg/day): 0.97 ± 0.37 mmol/L
LDL-C ([2]; serum, 70 mg/kg/day): 2.13 ± 0.54 mmol/L
TC ([2]; serum, 70 mg/kg/day): 2.58 ± 0.30 mmol/L
TG ([2]; serum, 70 mg/kg/day): 1.24 ± 0.16 mmol/L
TNF-α ([2]; serum, 70 mg/kg/day): 415.80 ± 13.54 ng/L

COc1cc([C@H]2Oc3cc([C@H]4Oc5cc(O)cc(O)c5C[C@@H]4O)ccc3O[C@@H]2CO)ccc1O [Compound 6, (2R,3S)-2-{(2R,3R)-3-(4-hydroxy-3-methoxyphenyl)-2-hydroxymethyl-2,3-dihydrobenzo[b][1,4]dioxan-6-yl}chroman-3,5,7-triol]
Therapeutic effect on non-alcoholic fatty liver of zebrafish (in words) ([1]; 100 μM): significant therapeutic effects
The total optical density of liver fat ([1]; 100 μM): 19868 ± 556 Pixels
Therapeutic effect on zebrafish non-alcoholic fatty liver (in words) ([1]; 200 μM): significant therapeutic effect
The total optical density of liver fat ([1]; 200 μM): 18157 ± 572 Pixels
inhibition at 100 µM ([1]; 100 μM): 58%
inhibition at 200 µM ([1]; 200 μM): 92%
